One compound from ChEMBL document CHEMBL1142059, “Excelsione, a depsidone from an endophytic fungus isolated from the New Zealand endemic tree Knightia excelsa” (J Nat Prod, 2007) can be followed below.

This data set deals with P388. As to the kind of experiment: Cytotoxicity against mouse P388 cells at 12.5 ug/mL. It is filed as cell-based.

As to `Cc1cc(O)c(CO)c2c1C(=O)Oc1c(C)c3c(c(O)c1O2)C(=O)OC3` [EXCELSIONE], the Activity entry is reported as “Not Active”.
